Measurements: PubChem BioAssay AID1919010 (Molecular Pharmacology Branch, DTP, NCI, 2023)
Values belong to the molecule of their own block, whether it stands above or below them.

Test system: Hs578T complex spheroid growth, percent test/control
Assay: Anticancer human tumor Hs578T cell line growth inhibition [AhR];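 also: luminescent viability signal as a proxy for spheroid growth; spheroids exposed to agents for one week after three days of growth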
Details: for IC50: curve of first compound; for viability, T/C: stronger effect = lower value
How it was run: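 Complex tumor spheroids co-cultured with HUVEC and human MSC stroma; AhR antagonists tested in combination with standard-of-care and investigational agents. Top concentration at or near clinical Cmax (else 10 microM), half-log dilutions; growth expressed as percent test/control.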

[1] = second compound 0.1 µM, first compound 0.00949 µM
[2] = second compound 0.1 µM, first compound 0.03 µM
[3] = second compound 0.1 µM, first compound 0.0949 µM
[4] = second compound 0.1 µM, first compound 0.3 µM
[5] = second compound 0.1 µM, first compound 0.949 µM
[6] = second compound 0.1 µM, first compound 3 µM
[7] = second compound 0.316 µM, first compound 0.00949 µM
[8] = second compound 0.316 µM, first compound 0.03 µM
[9] = second compound 0.316 µM, first compound 0.0949 µM
[10] = second compound 0.316 µM, first compound 0.3 µM
[11] = second compound 0.316 µM, first compound 0.949 µM
[12] = second compound 0.316 µM, first compound 3 µM
[13] = second compound 1 µM, first compound 0.00949 µM
[14] = second compound 1 µM, first compound 0.03 µM
[15] = second compound 1 µM, first compound 0.0949 µM
[16] = second compound 1 µM, first compound 0.3 µM
[17] = second compound 1 µM, first compound 0.949 µM
[18] = second compound 1 µM, first compound 3 µM
[19] = second compound 3.16 µM, first compound 0.00949 µM
[20] = second compound 3.16 µM, first compound 0.03 µM
[21] = second compound 3.16 µM, first compound 0.0949 µM
[22] = second compound 3.16 µM, first compound 0.3 µM
[23] = second compound 3.16 µM, first compound 0.949 µM
[24] = second compound 3.16 µM, first compound 3 µM
[25] = second compound 10 µM, first compound 0.00949 µM
[26] = second compound 10 µM, first compound 0.03 µM
[27] = second compound 10 µM, first compound 0.0949 µM
[28] = second compound 10 µM, first compound 0.3 µM
[29] = second compound 10 µM, first compound 0.949 µM
[30] = second compound 10 µM, first compound 3 µM

IC50 (second compound 0.1 µM): > 3000 nM
IC50 (second compound 0.316 µM): > 3000 nM
IC50 (second compound 1 µM): > 3000 nM
IC50 (second compound 3.16 µM): > 3000 nM
IC50 (second compound 10 µM): > 3000 nM
SMILES: CCN(c1cc(-c2ccc(CN3CCOCC3)cc2)cc(C(=O)NCc2c(C)cc(C)[nH]c2=O)c1C)C1CCOCC1 + CC(CO)NC(=O)c1cc(-c2ccc(Cl)cc2)nn(-c2cnn(C)c2)c1=O
viability, T/C [1]: 116%
viability, T/C [2]: 112%
viability, T/C [3]: 112%
viability, T/C [4]: 102%
viability, T/C [5]: 104%
viability, T/C [6]: 112%
viability, T/C [7]: 114%
viability, T/C [8]: 112%
viability, T/C [9]: 122%
viability, T/C [10]: 109%
viability, T/C [11]: 114%
viability, T/C [12]: 98.4%
viability, T/C [13]: 113%
viability, T/C [14]: 121%
viability, T/C [15]: 120%
viability, T/C [16]: 107%
viability, T/C [17]: 111%
viability, T/C [18]: 113%
viability, T/C [19]: 107%
viability, T/C [20]: 113%
viability, T/C [21]: 115%
viability, T/C [22]: 111%
viability, T/C [23]: 104%
viability, T/C [24]: 106%
viability, T/C [25]: 107%
viability, T/C [26]: 104%
viability, T/C [27]: 107%
viability, T/C [28]: 92.3%
viability, T/C [29]: 101%
viability, T/C [30]: 106%

IC50 (second compound 0.1 µM): > 300 nM
IC50 (second compound 0.316 µM): > 300 nM
IC50 (second compound 1 µM): > 300 nM
IC50 (second compound 3.16 µM): > 300 nM
IC50 (second compound 10 µM): > 300 nM
SMILES: Nc1ncn(C2CC(O)C(CO)S2)c(=O)n1 (stereo not given) + CC(CO)NC(=O)c1cc(-c2ccc(Cl)cc2)nn(-c2cnn(C)c2)c1=O
viability, T/C (second compound 0.1 µM, first compound 0.000949 µM): 115%
viability, T/C (second compound 0.1 µM, first compound 0.003 µM): 124%
viability, T/C [1]: 117%
viability, T/C [2]: 119%
viability, T/C [3]: 115%
viability, T/C [4]: 98.6%
viability, T/C (second compound 0.316 µM, first compound 0.000949 µM): 118%
viability, T/C (second compound 0.316 µM, first compound 0.003 µM): 114%
viability, T/C [7]: 128%
viability, T/C [8]: 110%
viability, T/C [9]: 117%
viability, T/C [10]: 108%
viability, T/C (second compound 1 µM, first compound 0.000949 µM): 112%
viability, T/C (second compound 1 µM, first compound 0.003 µM): 110%
viability, T/C [13]: 121%
viability, T/C [14]: 121%
viability, T/C [15]: 122%
viability, T/C [16]: 118%
viability, T/C (second compound 3.16 µM, first compound 0.000949 µM): 123%
viability, T/C (second compound 3.16 µM, first compound 0.003 µM): 122%
viability, T/C [19]: 116%
viability, T/C [20]: 116%
viability, T/C [21]: 105%
viability, T/C [22]: 112%
viability, T/C (second compound 10 µM, first compound 0.000949 µM): 113%
viability, T/C (second compound 10 µM, first compound 0.003 µM): 104%
viability, T/C [25]: 112%
viability, T/C [26]: 113%
viability, T/C [27]: 110%
viability, T/C [28]: 104%

IC50 (second compound 0.1 µM): 305 nM
IC50 (second compound 0.316 µM): 314 nM
IC50 (second compound 1 µM): 352 nM
IC50 (second compound 3.16 µM): 333 nM
IC50 (second compound 10 µM): 300 nM
SMILES: O=C(C=Cn1cnc(-c2cc(C(F)(F)F)cc(C(F)(F)F)c2)n1)NNc1cnccn1 + CC(CO)NC(=O)c1cc(-c2ccc(Cl)cc2)nn(-c2cnn(C)c2)c1=O
viability, T/C [1]: 102%
viability, T/C [2]: 108%
viability, T/C [3]: 89.4%
viability, T/C [4]: 51.8%
viability, T/C [5]: 19.2%
viability, T/C [6]: 17.2%
viability, T/C [7]: 109%
viability, T/C [8]: 103%
viability, T/C [9]: 87.7%
viability, T/C [10]: 53.3%
viability, T/C [11]: 19.6%
viability, T/C [12]: 18.4%
viability, T/C [13]: 107%
viability, T/C [14]: 102%
viability, T/C [15]: 94.8%
viability, T/C [16]: 55.1%
viability, T/C [17]: 20.8%
viability, T/C [18]: 18.6%
viability, T/C [19]: 108%
viability, T/C [20]: 100%
viability, T/C [21]: 91.7%
viability, T/C [22]: 51.5%
viability, T/C [23]: 28.2%
viability, T/C [24]: 21.9%
viability, T/C [25]: 97%
viability, T/C [26]: 102%
viability, T/C [27]: 100%
viability, T/C [28]: 50%
viability, T/C [29]: 22.6%
viability, T/C [30]: 24.4%
